Experimental data taken from US8603527B2, “Pharmaceutical formulations of a substituted diaminopurine” (Signal Pharmaceuticals, LLC, priority 2010, dated 2013).
Read-outs that look alike come from different tables or passages of the source.

Experiments:
[1] = Pharmacokinetics (plasma and urine) of ascending multiple oral doses in healthy volunteers; type: in vivo, human; details: both sexes, human, oral; for Cmax: read-out: Cmax; for concentration at 24 h: read-out: Ctrough; for AUC: τ = 24 hours (N = 8), read-out: AUC(0-τ); for CL renal / CL renal at 14 days: urine, read-out: CLR (renal clearance of drug)
From the text: Subjects: Forty healthy male and female subjects between the ages of 20 and 50 were enrolled in the study. All subjects were in good health as determined by a medical history, physical examination, 12-lead ECG, serum biochemistry, hematology, urinalysis and virology. Subjects were not permitted to take any prescribed medication within 30 days or non-prescribed medication within 7 days of the first dose administration.
Study Design: This study was a randomized, double-blind, placebo-controlled, ascending-dose trial to evaluate the safety, tolerability and pharmacokinetics (PK) of multiple oral doses of Compound I. Subjects were enrolled into 1 of the 4 cohorts, 10 subjects per cohort (active:placebo=8:2). Subjects received a multiple oral dose of 25, 50, 100, or 200 mg unformulated Compound I in a capsule, or matching placebo, once daily (QD) for 14 days.
Assessments: Safety and tolerability were assessed by adverse event (AE) monitoring, clinical laboratory testing, vital sign measurement, 12-lead ECG measurement, concomitant medication assessment, and physical examination. Blood and urine samples were collected to assess the PK profile of Compound I and the S-cis isomer of Compound I. Blood samples (˜5 mL) for plasma PK analysis were collected in K2-EDTA vacutainer tubes to yield approximately 2 mL of plasma at each of the following time points: (i) Day 1: before dosing, and 0.25, 0.5, 1, 1.5, 2, 2.5, 3, 4, 6, 8, 10, 12, 16, and 24 hours after dosing; (ii) Day 3 to Day 9: before dosing; (iii) Day 10: before dosing, and 0.25, 0.5, 1, 1.5, 2, 2.5, 3, 4, 6, 8, 10, 12, and 16 hours after dosing; (iv) Day 11 to Day 13: before dosing; (v) Day 14: before dosing, and 0.25, 0.5, 1, 1.5, 2, 2.5, 3, 4, 6, 8, 10, 12, 16, 24, 48, 72, 96, 120, 144, and 168 hours after dosing. Urine samples for the PK analysis were collected as a single block at: (i) Day 1: before dosing (spot collection), 0 to 8, 8 to 16, and 16 to 24 hours after dosing; and (ii) Day 14: 0 to 8, 8 to 16, and 16 to 24 hours after dosing. Both plasma and urine concentrations of Compound I and its S-cis isomer were measured using validated liquid chromatography-tandem mass spectrometry (LC/MS/MS).
Data Analysis: Safety data were summarized using descriptive statistics by treatment. PK parameters for Compound I and its S-cis isomer were calculated using non-compartmental analysis using WinNonlin (Version 5.0.1 or greater; Pharsight Corporation, Mountain View, Calif.). Dose proportionality and dose independence were evaluated by visual inspection. Intra-subject variability was assessed using an ANOVA model using data from Days 10 and 14.

Aqueous solubility = type: physicochemical; details: aqueous medium
[2] = plasma, 25 mg, 25 mg QD, Day 1, plasma, healthy subjects (N = 8), geometric mean
[3] = plasma, 25 mg, 25 mg QD, Day 14, plasma, healthy subjects (N = 8), geometric mean
[4] = plasma, 50 mg, 50 mg QD, Day 1, plasma, healthy subjects (N = 8), geometric mean
[5] = plasma, 50 mg, 50 mg QD, Day 14, plasma, healthy subjects (N = 8), geometric mean
[6] = plasma, 100 mg, 100 mg QD, Day 1, plasma, healthy subjects (N = 8), geometric mean
[7] = plasma, 100 mg, 100 mg QD, Day 14, plasma, healthy subjects (N = 8), geometric mean
[8] = plasma, 200 mg, 200 mg QD, Day 1, plasma, healthy subjects (N = 8), geometric mean
[9] = plasma, 200 mg, 200 mg QD, Day 14, plasma, healthy subjects (N = 8), geometric mean

Compound: O[C@H]1CC[C@H](Nc2ncc3nc(Nc4c(F)cc(F)cc4F)n([C@H]4CCOC4)c3n2)CC1 [Compound I, 4-((9-((3S)-tetrahydro-3-furanyl)-8-((2,4,6-trifluorophenyl)amino)-9H-purin-2-yl)amino)-trans-cyclohexanol]
- Vd/F ([1]; 200 mg QD, Day 14, plasma (N = 8), geometric mean, read-out: Vz/F): 328 L
- half-life ([1]; 200 mg QD, Day 14, plasma (N = 8), geometric mean, read-out: t1/2 (converted)): 1560 min
- AUC(0-inf) ([1]; plasma, 25 mg, 25 mg QD, Day 1, plasma (N = 8), geometric mean): 4260 ng·h/mL
- Cmax [1, 2]: 212 ng/mL
- concentration at 24 h [1, 2]: 55 ng/mL
- Tmax ([1]; plasma, 25 mg, 25 mg QD, Day 1, plasma, healthy subjects (N = 8), median, read-out: tmax): 2.3 h
- AUC ([1]; plasma, 25 mg, 25 mg QD, Day 1, plasma, geometric mean): 2270 ng·h/mL
- AUC(0-inf) ([1]; plasma, 25 mg, 25 mg QD, Day 14, plasma (N = 8), geometric mean): 10200 ng·h/mL
- Cmax [1, 3]: 328 ng/mL
- concentration at 24 h [1, 3]: 130 ng/mL
- Tmax ([1]; plasma, 25 mg, 25 mg QD, Day 14, plasma, healthy subjects (N = 8), median, read-out: tmax): 2 h
- AUC ([1]; plasma, 25 mg, 25 mg QD, Day 14, plasma, geometric mean): 4400 ng·h/mL
- AUC(0-inf) ([1]; plasma, 50 mg, 50 mg QD, Day 1, plasma (N = 8), geometric mean): 7750 ng·h/mL
- Cmax [1, 4]: 406 ng/mL
- concentration at 24 h [1, 4]: 125 ng/mL
- Tmax ([1]; plasma, 50 mg, 50 mg QD, Day 1, plasma, healthy subjects (N = 8), median, read-out: tmax): 2.3 h
- AUC ([1]; plasma, 50 mg, 50 mg QD, Day 1, plasma, geometric mean): 4560 ng·h/mL
- AUC(0-inf) ([1]; plasma, 50 mg, 50 mg QD, Day 14, plasma (N = 8), geometric mean): 21300 ng·h/mL
- Cmax [1, 5]: 740 ng/mL
- concentration at 24 h [1, 5]: 282 ng/mL
- Tmax ([1]; plasma, 50 mg, 50 mg QD, Day 14, plasma, healthy subjects (N = 8), median, read-out: tmax): 2 h
- AUC ([1]; plasma, 50 mg, 50 mg QD, Day 14, plasma, geometric mean): 9810 ng·h/mL
- AUC(0-inf) ([1]; plasma, 100 mg, 100 mg QD, Day 1, plasma (N = 8), geometric mean): 12200 ng·h/mL
- Cmax [1, 6]: 637 ng/mL
- concentration at 24 h [1, 6]: 183 ng/mL
- Tmax ([1]; plasma, 100 mg, 100 mg QD, Day 1, plasma, healthy subjects (N = 8), median, read-out: tmax): 2 h
- AUC ([1]; plasma, 100 mg, 100 mg QD, Day 1, plasma, geometric mean): 7300 ng·h/mL
- AUC(0-inf) ([1]; plasma, 100 mg, 100 mg QD, Day 14, plasma (N = 8), geometric mean): 31600 ng·h/mL
- Cmax [1, 7]: 880 ng/mL
- concentration at 24 h [1, 7]: 400 ng/mL
- Tmax ([1]; plasma, 100 mg, 100 mg QD, Day 14, plasma, healthy subjects (N = 8), median, read-out: tmax): 1.8 h
- AUC ([1]; plasma, 100 mg, 100 mg QD, Day 14, plasma, geometric mean): 12800 ng·h/mL
- AUC(0-inf) ([1]; plasma, 200 mg, 200 mg QD, Day 1, plasma (N = 8), geometric mean): 27000 ng·h/mL
- Cmax [1, 8]: 1440 ng/mL
- concentration at 24 h [1, 8]: 375 ng/mL
- Tmax ([1]; plasma, 200 mg, 200 mg QD, Day 1, plasma, healthy subjects (N = 8), median, read-out: tmax): 1.8 h
- AUC ([1]; plasma, 200 mg, 200 mg QD, Day 1, plasma, geometric mean): 15100 ng·h/mL
- AUC(0-inf) ([1]; plasma, 200 mg, 200 mg QD, Day 14, plasma (N = 8), geometric mean): 48400 ng·h/mL
- Cmax [1, 9]: 1740 ng/mL
- concentration at 24 h [1, 9]: 643 ng/mL
- Tmax ([1]; plasma, 200 mg, 200 mg QD, Day 14, plasma, healthy subjects (N = 8), median, read-out: tmax): 1.8 h
- AUC ([1]; plasma, 200 mg, 200 mg QD, Day 14, plasma, geometric mean): 22800 ng·h/mL
- half-life ([1]; plasma, 25-200 mg QD for 14 days, read-out: mean terminal half-life (t1/2)): 1500 to 1860 min
- Tmax ([1]; plasma, 25-200 mg QD for 14 days, read-out: median tmax): 1 to 2 h
- CL renal ([1]; 25 mg, 25 mg QD, Day 1, urine (n = 8), geometric mean): 9.5 mL/min
- CL renal at 14 days ([1]; 25 mg, 25 mg QD, Day 14, urine (n = 8), geometric mean): 13.3 mL/min
- CL renal ([1]; 50 mg, 50 mg QD, Day 1, urine (n = 8), geometric mean): 10.9 mL/min
- CL renal ([1]; 50 mg, 50 mg QD, Day 14, urine (n = 8), geometric mean): 11.8 mL/min
- CL renal ([1]; 100 mg, 100 mg QD, Day 1, urine (n = 8), geometric mean): 12 mL/min
- CL renal ([1]; 100 mg, 100 mg QD, Day 14, urine (n = 8), geometric mean): 15.4 mL/min
- CL renal ([1]; 200 mg, 200 mg QD, Day 1, urine (n = 8), geometric mean): 5.5 mL/min
- CL renal at 14 days ([1]; 200 mg, 200 mg QD, Day 14, urine (n = 8), geometric mean): 8.5 mL/min
- solubility (Aqueous solubility): < 1000 µg/mL
